Measured values published in patent US11066416B2, “Rapafucin derivative compounds and methods of use thereof” (The Johns Hopkins University, priority 2016, dated 2021).

How the values were obtained:
Format in all cases: cell-based
[1] = tested on: nucleoside uptake (3H-Thymidine); assay: Nucleoside uptake assay (uptake) using 3H-Thymidine, IC50, cell line as indicated in each table (none given in Table 8); details: 3H-Thymidine uptake; cell line not given
Procedure: (§1) Nucleoside Uptake Assay (uptake). Nuceloside uptake assays were performed with using 3H-Thymidine as described in Guo et al. (2018) Nat. Chem. 11:254-63. Specific cell lines are indicated in each assay and cultured in complete growth media. Activity is scored according to the IC50 values relative to DMSO control. “Low” indicates an IC50 greater than 600 nM, “Medium” indicates an IC50 between 300 nM and 600 nM “High” indicates an IC50 less than 300 nM. “Rel.Uptake” refers to uptake activity characterization relative to a single concentration assay. “Low” indicates a response greater than 0.6 times the activity relative to DMSO, “Medium” indicates a response between 0.6 and 0.3 times the activity relative to DMSO, “High” indicates a response less than 0.3 times the activity relative to DMSO.

H929 = assay: Cell proliferation assay (Prolif.), H929; details: H929 cells; Table 11
Procedure: Cell Proliferation Assay (Prolif.) Guo et al. (2018) Nat. Chem. 11:254-63. Specific cell lines are indicated in each assay and cultured in complete growth media. Activity is scored according to the IC50 values relative to DMSO control. “Low” indicates an IC50 greater than 600 nM, “Medium” indicates an IC50 between 300 nM and 600 nM “High” indicates an IC50 less than 300 nM. “Rel.Uptake” refers to uptake activity characterization relative to a single concentration assay. “Low” indicates a response greater than 0.6 times the activity relative to DMSO, “Medium” indicates a response between 0.6 and 0.3 times the activity relative to DMSO, “High” indicates a response less than 0.3 times the activity relative to DMSO.

[2] = tested on: nucleoside uptake (3H-Thymidine); assay: Rel.Uptake: nucleoside uptake, single concentration assay, cell line as indicated in each table; details: 293T, nucleoside uptake, response relative to DMSO
Procedure: as §1

Compound	IC50 [1]	Prolif, H929 (H929)	Rel. Uptake, 293T [2]
COc1ccc(CC[C@H]2OC(=O)[C@@H]3CCCCN3C(=O)C(=O)C(C)(C)COC(=O)/C=C/CCN(C)C(=O)[C@H](C(C)C)N(C)C(=O)[C@@H]3CCCN3C(=O)[C@@H](Cc3ccccc3)N(C)C(=O)[C@H](C)NC(=O)CCC(=O)Nc3cccc2c3)cc1OC [Compound 1606]	0.0237 µM	–	–
CCC[C@H]1C(=O)N(C)CCC=CC(=O)OCC(C)(C)C(=O)C(=O)N2CCCC[C@H]2C(=O)O[C@H](CCc2ccc(OC)c(OC)c2)c2cccc(c2)OCC(=O)NCC(=O)N(C)[C@H](Cc2ccccc2)C(=O)N2CCC[C@H]2C(=O)N1C [Compound 1625]	0.0423 µM	–	–
COc1ccc(CC[C@H]2OC(=O)[C@@H]3CCCCN3C(=O)C(=O)C(C)(C)COC(=O)/C=C/CCN(C)C(=O)[C@H](C(C)C)N(C)C(=O)[C@@H]3CCCN3C(=O)[C@@H](Cc3ccccc3)N(C)C(=O)[C@H](C)NC(=O)COc3cccc2c3)cc1OC [Compound 1612]	0.0335 µM	–	–
COc1ccc(CC[C@H]2OC(=O)[C@@H]3CCCCN3C(=O)C(=O)C(C)(C)COC(=O)C=CCCN(C)C(=O)[C@@H](C)N(C)C(=O)[C@@H]3CCCN3C(=O)[C@@H](Cc3ccccc3)N(C)C(=O)CNC(=O)COc3cccc2c3)cc1OC [Compound 1626]	0.155 µM	–	–
COc1ccc(CC[C@H]2OC(=O)[C@@H]3CCCCN3C(=O)C(=O)C(C)(C)COC(=O)/C=C/CCN(C)C(=O)[C@H](C(C)C)N(C)C(=O)[C@@H]3CCCN3C(=O)[C@@H](Cc3ccccc3)N(C)C(=O)[C@H](c3ccccc3)NC(=O)CCC(=O)Nc3cccc2c3)cc1OC [Compound 1610]	0.0165 µM	–	–
CC[C@H](C)[C@H]1C(=O)N(C)CC/C=C/C(=O)OCC(C)(C)C(=O)C(=O)N2CCCC[C@H]2C(=O)O[C@H](CCc2ccc(OC)c(OC)c2)c2cccc(c2)NC(=O)CCC(=O)N[C@@H](C)C(=O)N(C)[C@H](Cc2ccccc2)C(=O)N2CCC[C@H]2C(=O)N1C [Compound 1614]	0.0344 µM	–	–
COc1ccc(CC[C@H]2OC(=O)[C@@H]3CCCCN3C(=O)C(=O)C(C)(C)COC(=O)/C=C/CCN(C)C(=O)[C@H](C(C)C)N(C)C(=O)[C@@H]3CCCN3C(=O)[C@@H](Cc3ccccc3)N(C)C(=O)[C@H](Cc3ccccc3)NC(=O)CCC(=O)Nc3cccc2c3)cc1OC [Compound 1609]	0.055 µM	–	–
COc1ccc(CC[C@H]2OC(=O)[C@@H]3CCCCN3C(=O)C(=O)C(C)(C)COC(=O)C=CCCN(C)C(=O)[C@H](CC(C)C)N(C)C(=O)[C@@H]3CCCN3C(=O)[C@@H](Cc3ccccc3)N(C)C(=O)[C@H](C)NC(=O)COc3cccc2c3)cc1OC [Compound 1623]	0.0105 µM	–	–
COc1ccc(CC[C@H]2OC(=O)[C@@H]3CCCCN3C(=O)C(=O)C(C)(C)COC(=O)C=CCCN(C)C(=O)[C@H](CC(C)C)N(C)C(=O)[C@@H]3CCCN3C(=O)[C@@H](Cc3ccccc3)N(C)C(=O)[C@H](C)NC(=O)CCC(=O)Nc3cccc2c3)cc1OC [Compound 1624]	0.0314 µM	–	–
COc1ccc(CC[C@H]2OC(=O)[C@@H]3CCCCN3C(=O)C(=O)C(C)(C)COC(=O)/C=C/CCN(C)C(=O)[C@H](C(C)C)N(C)C(=O)[C@@H]3CCCN3C(=O)[C@@H](Cc3ccccc3)N(C)C(=O)CNC(=O)COc3cccc2c3)cc1OC [Compound 1611]	0.0489 µM	–	–
CCC[C@@H]1NC(=O)CCC(=O)Nc2cccc(c2)[C@@H](CCc2ccc(OC)c(OC)c2)OC(=O)[C@@H]2CCCCN2C(=O)C(=O)C(C)(C)COC(=O)/C=C/CCN(C)C(=O)[C@H]([C@@H](C)CC)N(C)C(=O)[C@@H]2CCCN2C(=O)[C@@H](Cc2ccccc2)N(C)C1=O [Compound 1615]	0.0122 µM	–	–
CCC[C@@H]1NC(=O)COc2cccc(c2)[C@@H](CCc2ccc(OC)c(OC)c2)OC(=O)[C@@H]2CCCCN2C(=O)C(=O)C(C)(C)COC(=O)/C=C/CCN(C)C(=O)[C@H]([C@@H](C)CC)N(C)C(=O)[C@@H]2CCCN2C(=O)[C@@H](Cc2ccccc2)N(C)C1=O [Compound 1618]	0.173 µM	–	–
COc1ccc(CC[C@H]2OC(=O)[C@@H]3CCCCN3C(=O)C(=O)C(C)(C)COC(=O)/C=C/CCN(C)C(=O)[C@H](C(C)C)N(C)C(=O)[C@@H]3CCCN3C(=O)[C@@H](Cc3ccccc3)N(C)C(=O)CNC(=O)CCC(=O)Nc3cccc2c3)cc1OC [Compound 1605]	0.0279 µM	–	–
CC[C@H](C)[C@H]1C(=O)N(C)CC/C=C/C(=O)OCC(C)(C)C(=O)C(=O)N2CCCC[C@H]2C(=O)O[C@H](CCc2ccc(OC)c(OC)c2)c2cccc(c2)OCC(=O)N[C@@H](C)C(=O)N(C)[C@H](Cc2ccccc2)C(=O)N2CCC[C@H]2C(=O)N1C [Compound 1617]	0.0341 µM	–	–
CCCC[C@H]1C(=O)N(C)CC/C=C/C(=O)OCC(C)(C)C(=O)C(=O)N2CCCC[C@H]2C(=O)O[C@H](CCc2ccc(OC)c(OC)c2)c2cccc(c2)OCC(=O)NCC(=O)N(C)[C@H](Cc2ccccc2)C(=O)N2CCC[C@H]2C(=O)N1C [Compound 1620]	0.0139 µM	–	–
CCCC[C@H]1C(=O)N(C)CCC=CC(=O)OCC(C)(C)C(=O)C(=O)N2CCCC[C@H]2C(=O)O[C@H](CCc2ccc(OC)c(OC)c2)c2cccc(c2)OCC(=O)N[C@@H](C)C(=O)N(C)[C@H](Cc2ccccc2)C(=O)N2CCC[C@H]2C(=O)N1C [Compound 1621]	0.00976 µM	–	–
COc1cc(CC[C@H]2OC(=O)[C@@H]3CCCCN3C(=O)C(=O)C(C)(C)COC(=O)C=CCCN(C)C(=O)[C@@H](Cc3ccccc3)NC(=O)CN(C)C(=O)[C@@H](Cc3ccccc3)NC(=O)[C@H](Cc3ccc(O)cc3)N(C)C(=O)COc3cccc2c3)cc(O)c1OC [Compound 1567]	–	medium	medium
CC[C@H](C)[C@H]1C(=O)N(C)CC/C=C/C(=O)OCC(C)(C)C(=O)C(=O)N2CCCC[C@H]2C(=O)O[C@H](CCc2ccc(OC)c(OC)c2)c2cccc(c2)NC(=O)CCC(=O)N[C@@H](c2ccccc2)C(=O)N(C)[C@H](Cc2ccccc2)C(=O)N2CCC[C@H]2C(=O)N1C [Compound 1616]	0.1 µM	–	–
COc1cc(O)c(CC[C@H]2OC(=O)[C@@H]3CCCCN3C(=O)C(=O)C(C)(C)COC(=O)C=CCCN(C)C(=O)[C@@H](Cc3ccccc3)NC(=O)CN(C)C(=O)[C@@H](Cc3ccccc3)NC(=O)[C@H](Cc3ccc(O)cc3)N(C)C(=O)COc3cccc2c3)cc1OC [Compound 1568]	–	low	low
COc1ccc(CC[C@H]2OC(=O)[C@@H]3CCCCN3C(=O)C(=O)C(C)(C)COC(=O)C=CCCN(C)C(=O)[C@@H](Cc3ccccc3)NC(=O)CN(C)C(=O)[C@@H](Cc3ccccc3)NC(=O)[C@H](Cc3ccc(O)cc3)N(C)C(=O)COc3cccc2c3F)cc1OC [Compound 1579]	–	medium	medium
COc1ccc(CC[C@H]2OC(=O)[C@@H]3CCCCN3C(=O)C(=O)C(C)(C)COC(=O)/C=C/CCN(C)C(=O)[C@H](C(C)C)N(C)C(=O)[C@@H]3CCCN3C(=O)[C@@H](Cc3ccccc3)N(C)C(=O)[C@H](CC(C)C)NC(=O)CCC(=O)Nc3cccc2c3)cc1OC [Compound 1608]	0.0541 µM	–	–
COc1ccc(CC[C@H]2OC(=O)[C@@H]3CCCCN3C(=O)C(=O)C(C)(C)COC(=O)/C=C/CCN(C)C(=O)[C@H](C)N(C)C(=O)[C@@H]3CCCN3C(=O)[C@@H](Cc3ccccc3)N(C)C(=O)[C@H](C)NC(=O)COc3cccc2c3)cc1OC [Compound 1619]	0.0667 µM	–	–
COc1ccc(CC[C@H]2OC(=O)[C@@H]3CNCCN3C(=O)C(=O)C(C)(C)COC(=O)C=CCCN(C)C(=O)[C@@H](Cc3ccccc3)NC(=O)CN(C)C(=O)[C@@H](Cc3ccccc3)NC(=O)[C@H](Cc3ccc(O)cc3)N(C)C(=O)COc3cccc2c3)cc1OC [Compound 1573]	–	low	low
COc1cc(F)c(CC[C@H]2OC(=O)[C@@H]3CCCCN3C(=O)C(=O)C(C)(C)COC(=O)C=CCCN(C)C(=O)[C@@H](Cc3ccccc3)NC(=O)CN(C)C(=O)[C@@H](Cc3ccccc3)NC(=O)[C@H](Cc3ccc(O)cc3)N(C)C(=O)COc3cccc2c3)cc1OC [Compound 1570]	–	medium	medium
COc1ccc(CC[C@H]2OC(=O)[C@@H]3CN(C)CCN3C(=O)C(=O)C(C)(C)COC(=O)C=CCCN(C)C(=O)[C@@H](Cc3ccccc3)NC(=O)CN(C)C(=O)[C@@H](Cc3ccccc3)NC(=O)[C@H](Cc3ccc(O)cc3)N(C)C(=O)COc3cccc2c3)cc1OC [Compound 1574]	–	low	low
COc1ccc(CC[C@H]2OC(=O)[C@@H]3CCCCN3C(=O)C(=O)C(C)(C)COC(=O)C=CCCN(C)C(=O)[C@@H](Cc3ccccc3)NC(=O)CN(C)C(=O)[C@@H](Cc3ccccc3)NC(=O)[C@H](Cc3ccc(O)cc3)N(C)C(=O)COc3cc2ccc3F)cc1OC [Compound 1578]	–	low	low
COc1ccc(CC[C@H]2OC(=O)[C@@H]3CCCCN3C(=O)C(=O)C(C)(C)COC(=O)C=CCCN(C)C(=O)C3(CCCCC3)NC(=O)[C@@H]3CCCN3C(=O)[C@@H](Cc3ccccc3)N(C)C(=O)CNC(=O)COc3cccc2c3)cc1OC [Compound 1627]	0.262 µM	–	–
COc1cc(OC)c(OC)cc1CC[C@H]1OC(=O)[C@@H]2CCCCN2C(=O)C(=O)C(C)(C)COC(=O)C=CCCN(C)C(=O)[C@@H](Cc2ccccc2)NC(=O)CN(C)C(=O)[C@@H](Cc2ccccc2)NC(=O)[C@H](Cc2ccc(O)cc2)N(C)C(=O)COc2cccc1c2 [Compound 1581]	–	medium	medium
